Test system: NOMO1
Experiment: cell viability relative to DMSO control; higher = less cytotoxic
Conditions: 48 h
In short: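 Library compounds in DMSO were pin-dosed in an 11-point threefold series (47 μM to 0.79 nM) onto leukemia cells in 1536-well plates (5 μl). Plates held 500 cells/well of NOMO1 or SEM or 1000 cells/well of P12-Ichikawa, each adapted for at least four passages in each medium. Luminescence was read with CellTiter-Glo One after 48 h at 37°C. Viability means the per-plate percentage relative to DMSO wells, using cell-free wells as background.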

[1] = HPLM + 10% dialyzed FBS, 0.000781 µM
[2] = HPLM + 10% dialyzed FBS, 0.00234 µM
[3] = HPLM + 10% dialyzed FBS, 0.00702 µM
[4] = HPLM + 10% dialyzed FBS, 0.0211 µM
[5] = HPLM + 10% dialyzed FBS, 0.0632 µM
[6] = HPLM + 10% dialyzed FBS, 0.19 µM
[7] = HPLM + 10% dialyzed FBS, 0.569 µM
[8] = HPLM + 10% dialyzed FBS, 1.71 µM
[9] = HPLM + 10% dialyzed FBS, 5.12 µM
[10] = HPLM + 10% dialyzed FBS, 15.4 µM
[11] = HPLM + 10% dialyzed FBS, 46.1 µM
[12] = RPMI 5 mM glucose + 10% FBS, 0.000781 µM
[13] = RPMI 5 mM glucose + 10% FBS, 0.00234 µM
[14] = RPMI 5 mM glucose + 10% FBS, 0.00702 µM
[15] = RPMI 5 mM glucose + 10% FBS, 0.0211 µM
[16] = RPMI 5 mM glucose + 10% FBS, 0.0632 µM
[17] = RPMI 5 mM glucose + 10% FBS, 0.19 µM
[18] = RPMI 5 mM glucose + 10% FBS, 0.569 µM
[19] = RPMI 5 mM glucose + 10% FBS, 1.71 µM
[20] = RPMI 5 mM glucose + 10% FBS, 5.12 µM
[21] = RPMI 5 mM glucose + 10% FBS, 15.4 µM
[22] = RPMI 5 mM glucose + 10% FBS, 46.1 µM
[23] = RPMI 5 mM glucose + 10% dialyzed FBS, 0.000781 µM
[24] = RPMI 5 mM glucose + 10% dialyzed FBS, 0.00234 µM
[25] = RPMI 5 mM glucose + 10% dialyzed FBS, 0.00702 µM
[26] = RPMI 5 mM glucose + 10% dialyzed FBS, 0.0211 µM
[27] = RPMI 5 mM glucose + 10% dialyzed FBS, 0.0632 µM
[28] = RPMI 5 mM glucose + 10% dialyzed FBS, 0.19 µM
[29] = RPMI 5 mM glucose + 10% dialyzed FBS, 0.569 µM
[30] = RPMI 5 mM glucose + 10% dialyzed FBS, 1.71 µM
[31] = RPMI 5 mM glucose + 10% dialyzed FBS, 5.12 µM
[32] = RPMI 5 mM glucose + 10% dialyzed FBS, 15.4 µM
[33] = RPMI 5 mM glucose + 10% dialyzed FBS, 46.1 µM

Row | Compound | cell viability [1] | cell viability [2] | cell viability [3] | cell viability [4] | cell viability [5] | cell viability [6] | cell viability [7] | cell viability [8] | cell viability [9] | cell viability [10] | cell viability [11] | cell viability [12] | cell viability [13] | cell viability [14] | cell viability [15] | cell viability [16] | cell viability [17] | cell viability [18] | cell viability [19] | cell viability [20] | cell viability [21] | cell viability [22] | cell viability [23] | cell viability [24] | cell viability [25] | cell viability [26] | cell viability [27] | cell viability [28] | cell viability [29] | cell viability [30] | cell viability [31] | cell viability [32] | cell viability [33]
1 | Nc1nc(Nc2ccc([S+](N)(=O)[O-])cc2)nn1C(=O)c1c(F)cccc1F | 94.7% | 97.4% | 90.6% | 113% | 105% | 109% | 102% | 107% | 120% | 66.1% | 7.01% | 94.7% | 87.8% | 107% | 94% | 94.7% | 99.3% | 93.8% | 87.2% | 93.2% | 50.4% | 8.21% | 98.7% | 86.1% | 100% | 91.5% | 86.9% | 92.7% | 93.1% | 104% | 84.4% | 49.5% | 5.65%
2 | O=C(O)CCNc1cc(N2CCc3ccccc3CC2)nc(-c2ccccn2)n1 | 111% | 133% | 115% | 138% | 140% | 123% | 111% | 116% | 117% | 94.5% | 75.9% | 121% | 105% | 107% | 111% | 104% | 128% | 115% | 106% | 116% | 105% | 92.9% | 121% | 123% | 124% | 128% | 127% | 121% | 136% | 111% | 117% | 97.3% | 96.1%
3 | CO[C@H]1/C=C/O[C@@]2(C)Oc3c(C)c(O)c4c(O)c(c(/C=N/N5CCN(C)CC5)c(O)c4c3C2=O)NC(=O)/C(C)=C\C=C\[C@H](C)[C@H](O)[C@@H](C)[C@@H](O)[C@@H](C)[C@H](OC(C)=O)[C@@H]1C |  |  |  |  |  |  |  |  |  |  |  | 111% | 123% | 117% | 127% | 129% | 118% | 125% | 123% | 111% | 102% | 98.5% | 118% | 119% | 129% | 115% | 122% | 117% | 104% | 112% | 119% | 96.1% | 79.6%
4 | O=C(O)[C@@H](c1ccc(OCc2ccc3ccccc3n2)cc1)C1CCCC1 | 118% | 114% | 118% | 126% | 106% | 119% | 115% | 119% | 110% | 109% | 90.5% | 104% | 117% | 107% | 109% | 125% | 111% | 104% | 121% | 113% | 102% | 120% | 119% | 101% | 122% | 113% | 123% | 119% | 103% | 108% | 106% | 100% | 95.4%
5 | CCNC(=O)Nc1ccc(-c2nc3c(c(N4CCOC[C@@H]4C)n2)CCN(C2COC2)C3)cc1 | 117% | 130% | 102% | 119% | 101% | 95.9% | 88.6% | 66.5% | 57.6% | 44.5% | 40.5% | 109% | 102% | 105% | 107% | 105% | 94.6% | 98.9% | 84.6% | 67.3% | 52.8% | 46.6% | 108% | 115% | 119% | 102% | 98.4% | 97.2% | 101% | 66.7% | 66.5% | 52.8% | 45.4%
6 | NC/1=N/C(=O)N(C[C@@H](CO)OC[P](O)(O)=O)/C=C1 |  |  |  |  |  |  |  |  |  |  |  | 125% | 149% | 123% | 122% | 136% | 135% | 128% | 119% | 122% | 123% | 128% |  |  |  |  |  |  |  |  |  |  | 
7 | COC1=CC(=CC=C1)C2=CC=C(NC(=O)/C3=C(/CCC3)C(O)=O)C(=C2)F | 122% | 114% | 128% | 113% | 105% | 87.8% | 115% | 112% | 103% | 100% | 92.1% | 102% | 109% | 103% | 97.8% | 96.3% | 116% | 99.2% | 109% | 104% | 96% | 84.7% | 115% | 105% | 122% | 121% | 120% | 121% | 113% | 107% | 106% | 102% | 63.8%
8 | CCc1ccc(C(=O)Nc2cc(CN3CCN(C)CC3)cc(C(F)(F)F)c2)cc1C#Cc1cnc2ccnn2c1 | 117% | 113% | 123% | 118% | 109% | 129% | 134% | 142% | 104% | 103% | 101% | 99.5% | 112% | 113% | 114% | 120% | 110% | 119% | 116% | 119% | 128% | 102% | 115% | 119% | 107% | 112% | 120% | 114% | 125% | 119% | 120% | 107% | 113%
9 | O=C([O-])[C@H](CC(=O)N1C[C@H]2CCCC[C@H]2C1)Cc1ccccc1 | 116% | 120% | 135% | 133% | 138% | 123% | 128% | 145% | 134% | 156% | 122% |  |  |  |  |  |  |  |  |  |  |  |  |  |  |  |  |  |  |  |  |  | 
10 | C/C(=C\c1csc(C)n1)[C@@H]1C[C@@H]2O[C@@H]2CCC[C@H](C)[C@H](O)[C@@H](C)C(=O)C(C)(C)[C@@H](O)CC(=O)O1 | 33.3% | 25.8% | 27.8% | 28.4% | 29.2% | 31.6% | 30.1% | 30.5% | 34.8% | 34% | 30.7% | 27.2% | 19.5% | 17.9% | 20.3% | 18.1% | 18% | 17.8% | 18.7% | 18.1% | 22.8% | 19.8% | 84.5% | 20.9% | 20% | 21.6% | 23.3% | 20.9% | 21.7% | 25.8% | 24.2% | 31.1% | 23.3%
11 | Cn1cc(-c2cnn3c(N)c(Br)c([C@@H]4CCCNC4)nc23)cn1 | 99.8% | 107% | 111% | 102% | 101% | 99% | 93.2% | 47.7% | 21.8% | 15.8% | 27.6% | 99.7% | 88% | 88.8% | 85.2% | 89.7% | 89.3% | 84.2% | 60.3% | 16.4% | 11.3% | 12.8% | 78.7% | 93.1% | 84.1% | 98.2% | 95.3% | 92.5% | 81.2% | 33.4% | 20.1% | 16.5% | 19%
12 | C[C@H]1[C@H](O)O[C@@H]2O[C@@]3(C)CC[C@H]4[C@H](C)CC[C@@H]1[C@@]24OO3 | 86% | 97.3% | 81% | 92.6% | 89.9% | 96% | 84.4% | 58.1% | 13.4% | 9.81% | 15.4% | 80.2% | 80.5% | 93.2% | 97.2% | 91.9% | 92.2% | 88% | 56.3% | 14.9% | 7.4% | 8.31% | 99.8% | 96% | 92% | 85.7% | 89% | 104% | 93.8% | 64.4% | 17.5% | 12.2% | 15.6%
13 | Cn1cnc(-c2cc3nccc(Oc4ccc(NC(=S)NC(=O)Cc5ccccc5)cc4F)c3s2)c1 | 72.5% | 93.2% | 84.1% | 92.4% | 99.9% | 97.1% | 91.3% | 86% | 77.9% | 62% | 25.8% | 77.3% | 88.3% | 77.4% | 86.2% | 89.8% | 96.4% | 89.6% | 87.5% | 82.2% | 85.2% | 20.5% | 84% | 81.2% | 68.1% | 86% | 93.6% | 101% | 83% | 90% | 86.1% | 88.1% | 26.7%
14 | Oc1cc2c(cc1O)C1c3ccc(O)c(O)c3OCC1(O)C2 (stereo not drawn) | 95.1% | 89.1% | 104% | 93.5% | 111% | 107% | 102% | 115% | 111% | 105% | 110% | 102% | 92.3% | 101% | 102% | 91.9% | 96.6% | 97.7% | 94.9% | 106% | 92.2% | 93.9% | 77.6% | 87.2% | 104% | 97.2% | 99% | 106% | 107% | 110% | 103% | 103% | 102%
15 | O=C(c1ccc(/C=C/c2n[nH]c3ccccc23)cc1)N1CCNCC1 | 108% | 96.5% | 88.4% | 87.1% | 97.9% | 120% | 115% | 69.4% | 70.9% | 88.7% | 73.1% | 97% | 100% | 94% | 85.8% | 90.7% | 86.2% | 87.1% | 56.2% | 63.8% | 58.4% | 69% | 86.5% | 85.6% | 88.6% | 97.2% | 87.8% | 97.4% | 93.9% | 54.9% | 49.5% | 65.5% | 71.2%
16 | O=C(Nc1ccc([N+](=O)[O-])cc1Cl)c1cc(Cl)ccc1O | 103% | 94.9% | 99.2% | 107% | 98.7% | 120% | 111% | 57.4% | 30% | 40.3% | 31.7% | 85.1% | 86.4% | 84.1% | 93% | 94.5% | 89.1% | 82.7% | 62.3% | 32.5% | 72.8% | 48.7% | 88.8% | 94.3% | 91.3% | 90.9% | 103% | 96.4% | 101% | 50.8% | 34.6% | 50.9% | 47.9%
